Assay results from patent EP1276722B1, “NAPHTHAMIDINE UROKINASE INHIBITORS” (ABBOTT LABORATORIES, priority 2000, dated 2001).

Columns and labels:
angiogenesis = settings: J. Cell Biol. 1991, 115[3 Pt 2], 402a; cited from earlier work
tumor metastasis = settings: Anticancer Res. 1988, 8, 1373-1376; cited from earlier work
[1] = target: T1, urokinase enzyme Abbokinase (Homo sapiens, UniProt P00749); assay: Inhibition of urokinase on chromogenic substrate S-2444; assay type: biochemical; settings: read-out: Ki
T1 construct: purchased Abbott Laboratories, Abbott Park, IL
Method: Four concentrations were chosen, then 5 µl of each were diluted to a total assay volume of 200 µL. […] Several vials were reconstituted as directed on the vial, aliquoted, and stored frozen The enzyme was further diluted in assay buffer and 10 µL was used in the assay. Enzyme concentration in the assay was 2-3 nM. The assay was performed as follows: 175 µL of buffer was pipetted inta the polystyrene plate, and 5 µL solution of a compound of this invention in DMSO was added. The mixture was vortexed, treated with 10 µL of enzyme in buffer, vortexed, treated with 10 µL of substrate in water, and vortexed. […] The Spectromax® calculated the reaction rates which were used to calculate percent inhibition of the compounds of this invention versus the reaction rate of the enzyme in the absence of any inhibitor. The Ki's of the inhibitors were calculated from the percent inhibition and previously established Km.

SMILES | Ki [1] | further results
N=C(N)NC(=O)c1nc(Cl)c(N)nc1N [Amiloride] |  | angiogenesis in vitro (angiogenesis): inhibit; tumor metastasis in vivo (tumor metastasis): inhibit
CC(C)C1c2cc(C3CC3c3ccc4cc(C(=N)N)ccc4c3)ccc2CCN1Cc1ccccc1 (centres unmarked) [Example 19, 6-(2-(2-benzyl-1-isopropyl-1,2,3,4-tetrahydro-7-isoquinolinyl)cyclopropyl)-2-naphthalenecarboximidamide] | 0.144 µM | 
CC(C)C1NCCc2ccc(C3CC3c3ccc4cc(C(=N)N)ccc4c3)cc21 (centres unmarked) [Example 20, 6-(2-(1-isopropyl-1,2,3,4-tetrahydro-7-isoquinolinyl)cyclopropyl)-2-naphthalenecarboximidamide] | 0.084 µM | 
CC(C)C1c2cc(C3CC3c3ccc4cc(C(=N)N)ccc4c3)ccc2CCN1Cc1cccnc1 (centres unmarked) [Example 21, 6-(2-(1-isopropyl-2-(3-pyridinylmethyl)-1,2,3,4-tetrahydro-7-isoquinolinyl)cyclopropyl)-2-naphthalenecarboximidamide] | 0.084 µM | 
CC(C)C1=NCCc2ccc(C=Cc3cc(Br)c4cc(C(=N)N)ccc4c3)cc21 [Example 22, 8-bromo-6-(2-(1-isopropyl-3,4-dihydro-7-isoquinolinyl)ethenyl)-2-naphthalenecarboximidamide] | 0.291 µM | 
CC(C)C1c2cc(C3CC3c3ccc4cc(C(=N)N)ccc4c3)ccc2CCN1CC1CC1 (centres unmarked) [Example 23, 6-(2-(2-(cyclopropylmethyl)-1-isopropyl-1,2,3,4-tetrahydro-7-isoquinolinyl)cyclopropyl)-2-naphthalenecarboximidamide] | 0.058 µM | 
CCN1CCc2ccc(C3CC3c3ccc4cc(C(=N)N)ccc4c3)cc2C1C(C)C (centres unmarked) [Example 24, 6-(2-(2-ethyl-1-isopropyl-1,2,3,4-tetrahydro-7-isoquinolinyl)cyclopropyl)-2-naphthalenecarboximidamide] | 0.054 µM | 
C=CCN1CCc2ccc(C3CC3c3ccc4cc(C(=N)N)ccc4c3)cc2C1C(C)C (centres unmarked) [Example 25, 6-(2-(2-allyl-1-isopropyl-1,2,3,4-tetrahydro-7-isoquinolinyl)cyclopropyl)-2-naphthalenecarboximidamide] | 0.063 µM | 
CC(C)C1c2cc(C3CC3c3ccc4cc(C(=N)N)ccc4c3)ccc2CCN1CCO (centres unmarked) [Example 26, 6-(2-(2-(2-hydroxyethyl)-1-isopropyl-1,2,3,4-tetrahydro-7-isoquinolinyl)cyclopropyl)-2-naphthalenecarboximidamide] | 0.048 µM | 
CC(C)C1c2cc(C3CC3c3ccc4cc(C(=N)N)ccc4c3)ccc2CCN1C(C)C (centres unmarked) [Example 27, 6-(2-(1,2-diisopropyl-1,2,3,4-tetrahydro-7-isoquinolinyl)cyclopropyl)-2-naphthalenecarboximidamide] | 0.13 µM | 
CC1c2cc(C3CC3c3ccc4cc(C(=N)N)ccc4c3)ccc2CCN1C (centres unmarked) [Example 30, 6-(2-(1,2-dimethyl-1,2,3,4-tetrahydro-7-isoquinolinyl)cyclopropyl)-2-naphthalenecarboximidamide] | 0.278 µM | 
CCC1(CC)CN=C(C(C)C)c2ccc(C3CC3c3ccc4cc(C(=N)N)ccc4c3)cc21 (centres unmarked) [Example 31, 6-(2-(4,4-diethyl-1-isopropyl-3,4-dihydro-6-isoquinolinyl)cyclopropyl)-2-naphthalenecarboximidamide] | 0.35 µM | 
CCC1(CC)CN(C)C(C(C)C)c2ccc(C3CC3c3ccc4cc(C(=N)N)ccc4c3)cc21 (centres unmarked) [Example 32, 6-(2-(4,4-diethyl-1-isopropyl-2-methyl-1,2,3,4-tetrahydro-6-isoquinolinyl)cyclopropyl)-2-naphthalenecarboximidamide] | 0.35 µM | 
CC(C)C1c2cc(C3CC3c3ccc4cc(C(=N)N)ccc4c3)ccc2CCN1CC(F)(F)F (centres unmarked) [Example 33, 6-(2-(1-isopropyl-2-(2,2,2-trifluoroethyl)-1,2,3,4-tetrahydro-7-isoquinolinyl)cyclopropyl)-2-naphthalenecarboximidamide] | 1.44 µM | 
CC(C)C1=NCCc2ccc(C3CC3c3cc(/C=C/C(C)(C)C)c4cc(C(=N)N)ccc4c3)cc21 (centres unmarked) [Example 34, 8-((1E)-3,3-dimethyl-1-butenyl)-6-(2-(1-isopropyl-3,4-dihydro-7-isoquinolinyl)cyclopropyl)-2-naphthalenecarboximidamide] | 0.051 µM | 

More lines, main results first:

Ki [1] | SMILES | further results
0.128 µM | CC(C)C1=NCCc2ccc(C3CC3c3cc(Br)c4cc(C(=N)N)ccc4c3)cc21 (centres unmarked) [Example 35, 8-bromo-6-(2-(1-isopropyl-3,4-dihydro-7-isoquinolinyl)cyclopropyl)-2-naphthalenecarboximidamide] | 
0.054 µM | CC(C)C1c2cc(C3CC3c3cc(Br)c4cc(C(=N)N)ccc4c3)ccc2CCN1C (centres unmarked) [Example 36, 8-bromo-6-(2-(1-isopropyl-2-methyl-1,2,3,4-tetrahydro-7-isoquinolinyl)cyclopropyl)-2-naphthalenecarboximidamide] | 
0.01 µM | CC(C)/C=C/c1cc(C2CC2c2ccc3c(c2)C(C(C)C)N(C)CC3)cc2ccc(C(=N)N)cc12 (centres unmarked) [Example 37, 6-(2-(1-isopropyl-2-methyl-1,2,3,4-tetrahydro-7-isoquinolinyl)cyclopropyl)-8-((1E)-3-methyl-1-butenyl)-2-naphthalenecarboximidamide] | 
0.04 µM | C=C(C)/C=C/c1cc(C2CC2c2ccc3c(c2)C(C(C)C)N(C)CC3)cc2ccc(C(=N)N)cc12 (centres unmarked) [Example 38, 6-(2-(1-isopropyl-2-methyl-1,2,3,4-tetrahydro-7-isoquinolinyl)cyclopropyl)-8-((1E)-3-methyl-1,3-butadienyl)-2-naphthalenecarboximidamide] | 
0.037 µM | CC(C)C1c2cc(C3CC3c3cc(C4CC4)c4cc(C(=N)N)ccc4c3)ccc2CCN1C (centres unmarked) [Example 39, 8-cyclopropyl-6-(2-(1-isopropyl-2-methyl-1,2,3,4-tetrahydro-7-isoquinolinyl)cyclopropyl)-2-naphthalenecarboximidamide] | 
0.81 µM | COc1ccccc1-c1cc(C2CC2c2ccc3c(c2)C(C(C)C)N(C)CC3)cc2ccc(C(=N)N)cc12 (centres unmarked) [Example 40, 6-(2-(1-isopropyl-2-methyl-1,2,3,4-tetrahydro-7-isoquinolinyl)cyclopropyl)-8-(2-methoxyphenyl)-2-naphthalenecarboximidamide] | 
0.014 µM | C=Cc1cc(C2CC2c2ccc3c(c2)C(C(C)C)N(C)CC3)cc2ccc(C(=N)N)cc12 (centres unmarked) [Example 41, 6-(2-(1-isopropyl-2-methyl-1,2,3,4-tetrahydro-7-isoquinolinyl)cyclopropyl)-8-vinyl-2-naphthalenecarboximidamide] | 
0.18 µM | N=C(N)c1ccc2cc(C3CC3c3ccc4c(c3)CCNC4)ccc2c1 (centres unmarked) [Example 46, 6-(2-(1,2,3,4-tetrahydro-6-isoquinolinyl)cyclopropyl)-2-naphthalenecarboximidamide] | 
0.029 µM | CCC1CNCc2ccc(C3CC3c3ccc4cc(C(=N)N)ccc4c3)cc21 (centres unmarked) [Example 48, 6-(2-(4-ethyl-1,2,3,4-tetrahydro-6-isoquinolinyl)cyclopropyl)-2-naphthalenecarboximidamide] | 
0.278 µM | CCC1CN(Cc2ccccc2)Cc2ccc(C3CC3c3ccc4cc(C(=N)N)ccc4c3)cc21 (centres unmarked) [Example 49, 6-(2-(2-benzyl-4-ethyl-1,2,3,4-tetrahydro-6-isoquinolinyl)cyclopropyl)-2-naphthalenecarboximidamide] | 
0.043 µM | CCC1CNCc2ccc(C=Cc3ccc4cc(C(=N)N)ccc4c3)cc21 (centres unmarked) [Example 50, 6-(2-(4-ethyl-1,2,3,4-tetrahydro-6-isoquinolinyl)ethenyl)-2-naphthalenecarboximidamide] | 
0.123 µM | CCC1CN(C)Cc2ccc(C3CC3c3ccc4cc(C(=N)N)ccc4c3)cc21 (centres unmarked) [Example 51, 6-(2-(4-ethyl-2-methyl-1,2,3,4-tetrahydro-6-isoquinolinyl)cyclopropyl)-2-naphthalenecarboximidamide] | 
0.53 µM | CCC1CN(C(C)=O)Cc2ccc(C3CC3c3ccc4cc(C(=N)N)ccc4c3)cc21 (centres unmarked) [Example 52, 6-(2-(2-acetyl-4-ethyl-1,2,3,4-tetrahydro-6-isoquinolinyl)cyclopropyl)-2-naphthalenecarboximidamide] | 
0.343 µM | CCC1CN=C(C(C)C)c2ccc(C3CC3c3ccc4cc(C(=N)N)ccc4c3)cc21 (centres unmarked) [Example 54, 6-(2-(4-ethyl-1-isopropyl-3,4-dihydro-6-isoquinolinyl)cyclopropyl)-2-naphthalenecarboximidamide] | 
0.255 µM | CCC1CN=C(C(C)C)c2ccc(C=Cc3ccc4cc(C(=N)N)ccc4c3)cc21 (centres unmarked) [Example 55, 6-(2-(4-ethyl-1-isopropyl-3,4-dihydro-6-isoquinolinyl)ethenyl)-2-naphthalenecarboximidamide] | 
0.018 µM | N=C(N)c1ccc2cc(C3CC3c3ccc4c(c3)C(C3CCCCC3)=NCC4)cc(Br)c2c1 (centres unmarked) [Example 56, 8-bromo-6-(2-(1-cyclohexyl-3,4-dihydro-7-isoquinolinyl)cyclopropyl)-2-naphthalenecarboximidamide] | 
0.025 µM | CN1CCc2ccc(C3CC3c3cc(Br)c4cc(C(=N)N)ccc4c3)cc2C1C1CCCCC1 (centres unmarked) [Example 57, 8-bromo-6-(2-(1-cyclohexyl-2-methyl-1,2,3,4-tetrahydro-7-isoquinolinyl)cyclopropyl)-2-naphthalenecarboximidamide] | 
0.01 µM | CC(C)/C=C/c1cc(C2CC2c2ccc3c(c2)C(C2CCCCC2)=NCC3)cc2ccc(C(=N)N)cc12 (centres unmarked) [Example 58, 6-(2-(1-cyclohexyl-3,4-dihydro-7-isoquinolinyl)cyclopropyl)-8-((1E)-3-methyl-1-butenyl)-2-naphthalenecarboximidamide] | 
0.01 µM | CC(C)/C=C/c1cc(C2CC2c2ccc3c(c2)C(C2CCCCC2)N(C)CC3)cc2ccc(C(=N)N)cc12 (centres unmarked) [Example 59, 6-(2-(1-cyclohexyl-2-methyl-1,2,3,4-tetrahydro-7-isoquinolinyl)cyclopropyl)-8-((1E)-3-methyl-1-butenyl)-2-naphthalenecarboximidamide] | 
